Measurements: paper PMC3632207 (Journal of medicinal chemistry, 2013)

Target: rat nNOS (Rattus norvegicus, UniProt P29476)
Experiment: NOS inhibition, hemoglobin capture assay
Assay type: biochemical
Details: data not shown

Cc1cc(N)nc(CCc2cc(CCCN)cc(CCc3cc(C)cc(N)n3)c2)c1 [Compound 4, 6,6'-((5-(3-Aminopropyl)-1,3-phenylene)bis(ethane-2,1-diyl))bis(4-methylpyridin-2-amine)]
Competition with H4B: not to be competitive with H4B
